Source: US10195254B2, “Myristoylated leptin-related peptides and uses thereof” (ALBANY MEDICAL COLLEGE, priority 2014, dated 2019)
Where two headings read alike, the source gives them in different places. Where a SMILES comes first, the peptide text is derived from it. Where no end group is shown, it is not given here. [ ]: non-standard residue; d: D form. The star is where a group is joined. Myristoyl = CCCCCCCCCCCCCC(=O)*

Legend:
[1] = Body weight gain, food and water intake in STZ-induced hyperglycemic mice; type: in vivo, male Swiss Webster mice
Method: (§1) Streptozotocin (STZ)-induced male Swiss Webster mice were used in these studies to examine the effects of MA-[D-Leu-4]-OB3 on body weight gain and insulin sensitivity in an insulin-deficient mouse model of diabetes. Using this model, the insulin sensitizing effects of MA-[D-Leu-4]-OB3 was compared with those of another well-characterized insulin-sensitizing drug, metformin.
(§2) Seven-week old male Swiss Webster mice were rendered hyperglycemic with a single intraperitoneal (ip) dose of 150 mg/kg STZ. Fasting blood glucose levels were measured prior to STZ treatment to establish normal (non-diabetic) glucose levels, and every day thereafter to assess hyperglycemia. Fasting blood glucose levels were routinely 3- to 4-fold higher than normal 4-5 days after STZ treatment.
(§3) Detemir insulin (Levemir®, Novo Nordisk, Malov, Denmark) delivery pens were used to dispense 0.025 U/100 μL phosphate buffered saline (PBS), and delivered by subcutaneous (sc) injection twice daily between 8:00 and 9:00 a.m. and 4:00 and 5:00 p.m. for 14 days. MA-[D-Leu-4]-OB3 (NeoBiolab, Cambridge, Mass.) and metformin (Sigma Aldrich, St. Louis, Mo.) were dissolved in 0.3% dodecyl maltoside (DDM, Intravail®, Aegis Therapeutics, San Diego, Calif.) reconstituted in sterile deionized water, and delivered twice daily by oral gavage between 8:00 h and 9:00 h and 16:00 h and 17:00 h at a concentration of 5 mg/kg/100 μL or 100 mg/kg/100 uL, respectively, for 14 days.
(§4) On day zero and each day thereafter, food and water intake were measured, and the mice were weighed in the morning between 8:00 h and 9:00 h. To assure fasting (8 hour) glucose levels on the days blood glucose was measured, food was removed from the cages between 8:00 h and 9:00 h and replaced immediately after measurement.

[2] = mouse, in vivo
Method: (§5) Three to four week-old male Swiss Webster mice weighing between 12 and 15 g were obtained from Charles River Laboratories (Troy, N.Y., USA). The animals were housed three per cage in polycarbonate cages fitted with stainless steel wire lids and air filters, and supported on ventilated racks (Thoren Caging Systems, Hazelton, Pa., USA) in the Albany Medical College Animal Resources Facility. The mice were maintained at a constant temperature (24° C.) with lights on from 07:00 to 19:00 h, and allowed food and water ad libitum until used for uptake studies.
(§6) For oral and intranasal delivery, MA-[D-Leu-4]-OB3 was dissolved in 0.3% Intravail® (Aegis Therapeutics, San Diego, Calif., USA) reconstituted in sterile deionized water at a concentration of 0.1 mg/100 μL and 0.1 mg/10 μL, respectively. At time zero (0), a single 200 μl SC, IM, or IP injection of mouse MA-[D-Leu-4]-OB3 was given to each of three mice per time point. Intranasal delivery was achieved by lightly anesthetizing the mice with isoflurane (1-4%) and delivering 10 μl of MA-[D-Leu-4]OB3 into the nares using a Gilson® P-20 pipettor. Following peptide administration, the mice were transferred to separate cages for the designated time period.
(§7) One, two, four, six, 18, and 24 h after peptide delivery, the mice were anesthetized with isoflurane (5%) and exsanguinated by cardiac puncture. The blood was collected in sterile non-heparinized plastic centrifuge tubes and allowed to stand at room temperature for 1 h. The clotted blood was rimmed from the walls of the tubes with sterile wooden applicator sticks. Individual serum samples were prepared by centrifugation for 30 min at 2600×g in an Eppendorf 5702R, A-4-38 rotor (Eppendorf North America, Westbury, N.Y., USA), pooled by time point, and stored frozen until assayed for MA-[D-Leu-4]OB3 content.
(§8) MA-[D-Leu-4]-OB3 concentrations in the pooled serum samples were measured with a competitive ELISA, developed and validated by the present inventors, with the following modification: MA-[D-Leu-4]-OB3 was used to construct the standard curve. Cross-reactivity of MA-[D-Leu-4]-OB3 with the polyclonal antibody to [D-Leu-4]-OB3 used in the ELISA was 100%. Each serum sample was assayed in duplicate. Intra- and inter-assay coefficients of variation were 0.03% and 0.2%, respectively.
(§9) Serum concentrations of MA-[D-Leu-4]OB3 vs. time following SC, IP, IM, oral, or intranasal delivery were plotted using the graphics program SigmaPlot 8.0 (SPSS Science, Chicago, Ill., USA). The area under each curve (AUC) was calculated with a function of this program, and expressed as ng/ml/min.
(§10) The period of time required for the serum concentration of MA-[D-Leu-4]OB3 to be reduced to exactly one-half of the maximum concentration achieved following IP, SC, IM, oral, and intranasal administration was calculated using the following formula: t1/2=0.693/kelim
(§11) where kelim represents the elimination constant, determined by plotting the natural log of each of the concentration points in the beta phase of the uptake profiles against time.

[3] = system: male BKS.Cg-Dock7m+/+Leprdb/J diabetic db/db mice; assay: Fasting blood glucose in db/db mice after oral delivery in PBS or 0.3% DDM; type: in vivo; settings: oral gavage once daily
Method: Studies comparing the effects of oral delivery of myristic acid-conjugated [D-Leu-4]-OB3 in PBS or 0.3% dodecyl maltoside (DDM, Intravail®) on fasting blood glucose in six to seven week-old male BKS.Cg-Dock7^m+/+Lepr^db/J diabetic db/db mice.
Male db/db mice were given increasing concentrations of MA-[D-Leu-4]-OB3 in either PBS or DDM orally by gavage once daily in the evening for 14 consecutive days. Fasting (8 hours) blood glucose levels were measured every other day using an Accu-Chek Nano glucose meter (Roche, Indianapolis, Ind.).

[4] = mouse, in vivo; remark: listed apart in the source
Method: as §5, §6, §7, §8, §9, §10, §11

[5] = system: STZ-induced hyperglycemic male Swiss Webster mice; assay: Fasting blood glucose in STZ-induced hyperglycemic mice; type: in vivo
Method: as §1, §2, §3, §4

[6] = in vivo, cited from earlier work

## CCCCCCCCCCCCCC(=O)N[C@@H](CO)C(=O)N[C@@H](CS)C(=O)N[C@@H](CO)C(=O)N[C@H](CC(C)C)C(=O)N1CCC[C@H]1C(=O)N[C@@H](CCC(N)=O)C(=O)N[C@H](C(N)=O)[C@@H](C)O [MA-[D-Leu-4]-OB3] (Myristoyl-SCS[dL]PQT-NH2)
[1]
  heavier at the end of the 14-day test period (body weight gain): 8.1%
[1]; 14 days
  Cumulative food intake: 103.3 ± 2.3 gm/mouse
  Cumulative water intake: 452.5 ± 6.4 mL/mouse
[1]; after 14 days
  body weight % of initial: 108.1%
  body weight Change: +2.0 gm
[1]; after 14 days twice daily: MA-[D-Leu-4]-OB3 5 mg/kg oral, metformin 100 mg/kg oral, insulin 0.025 U sc
  Final body weight: 26.8 ± 1.6 gm
[1]; baseline, STZ mice
  Initial body weight: 24.8 ± 1.4 gm
[2]
  period of absorption: 2 to 6 h
  relative bioavailability: 5.3
[2]; im, 0.1 mg
  Plasma CL: 0.12 mL/min
  clearance: 0.12 mL/min
  t1/2: 5.9 h
[2]; inhaled or intranasal
  reduction of Cmax: 80%
  relative bioavailability: 1.0
[2]; inhaled or intranasal, 0.1 mg
  Plasma CL: 0.63 mL/min
  Vd: 447.0 mL
  clearance: 0.63 mL/min
[2]; ip
  relative bioavailability: 7.7
[2]; ip, 0.1 mg
  Clearance from the plasma: 0.08 mL/min
  Vd: 30.9 mL
  clearance: 0.0798 mL/min
  t1/2: 4.5 h
[2]; po
  reduction of Cmax: 31%
  relative bioavailability: 1.8
[2]; po, 0.1 mg
  Plasma CL: 0.36 mL/min
  Vd: 900.8 mL
  clearance: 0.36 mL/min
[2]; sc
  relative bioavailability: 11.7
[2]; sc, 0.1 mg
  Plasma CL: 0.05 mL/min
  Vd: 8.6 mL
  clearance: 0.05 mL/min
[3]; 100 or 250 mcg/day in 0.3% DDM, 14 days
  fasting blood glucose levels: significantly reduced
[3]; 250 mcg/day in 0.3% DDM, end of 14-day treatment
  fasting blood glucose levels: reduced to levels seen in non-diabetic BKS mice
[3]; 250 or 500 mcg/day in PBS, after 14 days
  fasting blood glucose levels: unchanged from those in control mice receiving PBS alone
[4]; half-life
  half-life: ≤ 28 h
[4]; im, 0.1 mg
  AUC: 842 µg·h/mL
  Cmax: 89800 ng/mL
  Tmax: 2 h
[4]; im, 0.1 mg, t1/2
  half-life: 5.5 h
[4]; inhaled or intranasal, 0.1 mg
  AUC: 158 µg·h/mL
  Cmax: 10000 ng/mL
  Tmax: 6 h
[4]; inhaled or intranasal, 0.1 mg, t1/2
  half-life: 8.2 h
[4]; ip, 0.1 mg
  AUC: 1210 µg·h/mL
  Tmax: 2 h
[4]; ip, 0.1 mg, t1/2
  half-life: 4.1 h
[4]; po, 0.1 mg
  AUC: 278 µg·h/mL
  Cmax: 14400 ng/mL
  Tmax: 4 h
[4]; po, 0.1 mg, t1/2
  half-life: 28.9 h
[4]; sc, 0.1 mg
  AUC: 1830 µg·h/mL
  Tmax: 2 h
[4]; sc, 0.1 mg, t1/2
  half-life: 2 h
[5]; 14 day study, combination: within two days and throughout the study
  effect on fasting blood glucose levels: very little effect
[5]; after 14 days
  blood glucose % of initial: 98.8%
  blood glucose Change: -6 mg/dL
[5]; baseline, fasting
  Initial blood glucose: 507.0 ± 6.0 mg/dL
[5]; end of 14-day test period versus beginning
  reduction of fasting blood glucose levels: 1.2%
[5]; fasting, after 14 days twice daily: MA-[D-Leu-4]-OB3 5 mg/kg oral, metformin 100 mg/kg oral, insulin 0.025 U sc
  Final blood glucose: 501.0 ± 12.3 mg/dL
[5]; on a mass basis, 10 mg/kg/day vs. 200 mg/kg/day
  times more effective than metformin in improving insulin sensitivity: 20 times
[5]; on a molar basis
  times more effective than metformin in improving insulin sensitivity: 6.1 times

## [D-Leu-4]-OB3: synthetic peptide amide with leptin-like activity that has the sequence SCSLPQT (SEQ ID NO:1); non-myristoylated comparator (SCS[dL]PQT-NH2)
[6]; im, 1 mg
  AUC: 1,481,060 ng/ml/min
  Cmax: 46,566 ng/ml
  Plasma CL: 0.68 mL/min
  Tmax: 0.083 h
  Vd: 29.4 mL
  t1/2: 0.6 h
[6]; inhaled or intranasal, 1 mg
  AUC: 4,336,963 ng/ml/min
  Plasma CL: 1.37 mL/min
  Vd: 15.4 mL
  t1/2: 0.683 h
[6]; ip, 1 mg
  AUC: 1,072,270 ng/ml/min
  Cmax: 22,519 ng/ml
  Tmax: 0.083 h
  Vd: 65.5 mL
  clearance: 0.93 mL/min
  t1/2: 0.817 h
[6]; po, 1 mg
  AUC: 552,710 ng/ml/min
  Cmax: 8,574 ng/ml
  Plasma CL: 1.81 mL/min
  Tmax: 0.833 h
  Vd: 47.9 mL
  t1/2: 0.333 h
[6]; sc, 1 mg
  AUC: 1,182,498 ng/ml/min
  Cmax: 35,063 ng/ml
  Plasma CL: 0.85 mL/min
  Tmax: 0.083 h
  Vd: 42.9 mL
  t1/2: 0.567 h
[6]
  period of absorption: 5 to 60 min
